Measured values reported in patent publication US9611256B2, “Alkyne-, azide- and triazole-containing flavonoids as modulators for multidrug resistance in cancers” (The Hong Kong Polytechnic University, priority 2012, dated 2017).
Where “and” joins values, the source holds several entries; their conditions need not be identical. Equal values may be shown once. Read-outs that look alike come from different tables or passages of the source. One block for each compound: values may come before it.

What was measured:
2008/P cells = assay: Cell proliferation assay, 2008/P; type: cell-based; conditions: Homo sapiens; without modulator; read-out: IC50 of anticancer drug, parental 2008/P cells
2008/MRP1 = assay: Cell proliferation assay, 2008/MRP1
L929 cells = assay: Cytotoxicity assay (MTS) towards L929 normal fibroblasts; conditions: read-out: Cytotoxicity (IC50, μM) L929; L929 mouse fibroblasts
[1] = as above; conditions: mouse, L929 fibroblasts
LCC6MDR = assay: Cell proliferation assay without modulator, LCC6MDR; type: cell-based, human
LCC6 cells = assay: Cell proliferation assay without modulator, LCC6; type: cell-based; conditions: Homo sapiens, LCC-6, read-out: IC50 of anticancer drug, parental LCC6 cells
HEK293/R2 = assay: Cell proliferation assay without modulator, HEK293/R2; type: cell-based; conditions: Homo sapiens, read-out: IC50 of anticancer drug, HEK293/R2
[2] = system: HEK293/pcDNA3.1 cell line; assay: Cell proliferation assay without modulator, HEK293/pcDNA3.1; type: cell-based; conditions: Homo sapiens, read-out: IC50 of anticancer drug, wild type HEK293/pcDNA3.1
MCF7-MX100 = assay: Cell proliferation assay without modulator, MCF7-MX100; type: cell-based, human
MCF7 = assay: Cell proliferation assay without modulator, MCF7; type: cell-based; conditions: Homo sapiens, read-out: IC50 of anticancer drug, wild type MCF7

SMILES: COc1cccc2c1C(=O)c1c(O)c3c(c(O)c1C2=O)C[C@@](O)(C(=O)CO)C[C@@H]3O[C@H]1C[C@H](N)[C@H](O)[C@H](C)O1 [DOX]
IC50 (2008/P cells): 50.1 ± 3.9 nM | IC50 (2008/MRP1; Homo sapiens, 2008/MRP1, read-out: IC50 of anticancer drug, 2008/MRP1, without modulator): 420 ± 17.4 nM | IC50 (2008/MRP1; read-out: IC50 of anticancer drug, 2008/MRP1, without modulator): 413 nM | fold more resistance of 2008/MRP1 than parental 2008/P (2008/MRP1; without modulator): about 8.4 fold

SMILES: COc1ccc2c3c([nH]c2c1)[C@H](CC(C)C)N1C(=O)[C@H](CCC(=O)OC(C)(C)C)NC(=O)[C@@H]1C3 [Ko143]
IC50 (L929 cells): 29 µM and 29.2 µM

SMILES: C/C=C/C[C@@H](C)C(=O)[C@H]1C(=O)N[C@@H](C(C)C)C(=O)N(C)CC(=O)N(C)[C@@H](CC(C)C)C(=O)N[C@@H](C(C)C)C(=O)N(C)[C@@H](CC(C)C)C(=O)N[C@@H](C)C(=O)N[C@H](C)C(=O)N(C)[C@@H](CC(C)C)C(=O)N(C)[C@@H](CC(C)C)C(=O)N(C)[C@@H](C(C)C)C(=O)N1C [PSC833]
IC50 at 5 days [1]: > 100000 nM

SMILES: CC(=O)O[C@H]1C(=O)[C@@]2(C)[C@H]([C@H](OC(=O)c3ccccc3)[C@]3(O)C[C@H](OC(=O)[C@H](O)[C@@H](NC(=O)c4ccccc4)c4ccccc4)C(C)=C1C3(C)C)[C@]1(OC(C)=O)CO[C@@H]1C[C@@H]2O [paclitaxel]
fold greater resistance of LCC6MDR than parental LCC6 cells (LCC6MDR): about 99.2 fold | IC50 (LCC6MDR; Homo sapiens, LCC6MDR, read-out: IC50 of anticancer drug, LCC6MDR): 159 ± 6.1 nM | IC50 (LCC6 cells): 1.6 ± 0.3 nM

IC50 (MCF7-MX100; Homo sapiens, MCF7/MX100, read-out: IC50 of anticancer drug, MCF7-MX100): 33400 ± 2100 nM | IC50 (MCF7): 320 ± 70 nM
SMILES: CC[C@@]1(O)C(=O)OCc2c1cc1n(c2=O)Cc2cc3c(CN(C)C)c(O)ccc3nc2-1 [topotecan]
IC50 (HEK293/R2): 508 ± 31.1 nM | IC50 [2]: 15.8 ± 1.5 nM | fold more resistance of MCF7-MX100 than wild type MCF7 (MCF7-MX100): about 104.4 fold
